For data set [1] the following is noted: 25°C. The method, then: To determine the solubility, small samples of the respective substance were exactly weighed to Eppendorf tubes. Upon shanking at an Eppendorf thermomixer (25 C @ 1400 rpm), water is added until the whole samples was homogenously dissolved.
For data set [2] the following is noted: for ε405: λ = 405 nm. The method, then:
To compare photobleaching, 0.25 mM solutions of ^PhBAPO-ONBu4 and ^MesBAPO-ONBu4 were prepared in THF. UV-Vis spectra were recorded in 2 mm quartz cuvettes prior and after 15 min of irradiation with 265 nm (Lumos 43 LED reactor, Atlas Photonics). Spectra have been smoothed (adjacent averaging, points of window: 5).

The conditions of data set [3]: for irradiation time to complete photolysis: 405 nm LED, 80 mM in CD3CN, diphenyl disulfide (3 eq.). The source says:
The photolysis has been followed by ^31P NMR. […] The results are further illustrated by Fig. 2

The conditions of data set [4]: for integral rel. to TPP / integral rel. to t = 0: protected from light. The method, then:
To determine the stability of ^PhBAPO-ONBu4 against hydrolysis, 10 mg were dissolved in 0.6 mL of D2O in a NMR tube protected from light. […] Table 1: Integrals of 31P NMR signals of PhBAPO-ONBu4 relative to TPP as external standard for integration over time.

Structures are written as SMILES. Where a name gives a salt, the structure may show the parent alone. Read-outs that look alike come from different tables or passages of the source. Where only a bound is given, the exact number is not on record here.

As for `Cc1cc(C)c(C(=O)P(=O)(O)C(=O)c2c(C)cc(C)cc2C)c(C)c1` [^MesBAPO-ONBu4, bis(mesitoyl)phosphinic acid tetrabutylammonium salt, reference compound], in data set [1], the solubility in water came to 3.5 mg/mL. The “λmax (longest wave absorption)” value in data set [2] (THF) was 373 nm. For the same molecule, the ε in data set [2] (λ = 244 nm) is given as 5935±72 Lmol^-1cm^-1; in data set [2] (λ = 265 nm (LED wavelength)) it was 3368±88 Lmol^-1cm^-1; in data set [2] (λ = 359 nm), 211±3 Lmol^-1cm^-1; in data set [2] (λ = 365 nm (LED wavelength)), 216±4 Lmol^-1cm^-1. The ε405 in data set [2] amounted to 64 Lmol^-1cm^-1. In data set [3], the “irradiation time to complete photolysis” value is listed as “over 12 min”.

The half-life is the time in which the quantity being followed falls by half. A high value points to slow loss. Molecule `O=C(c1ccccc1)P(=O)(O)C(=O)c1ccccc1` [^PhBAPO-ONBu4, bis(benzoyl)phosphinic acid tetrabutylammonium salt] gave a half-life in data set [4] of 51.4 days. Further, the half time in data set [4] (hydrolysis in D2O) is reported as 51 days. In data set [4] (hydrolysis in D2O, over 84 days), the “t1 (exponential fitting of the decay, y = e^-x/t1)” value was determined as 74.2 ± 1.8 days. Further, the “integral rel. to TPP” value in data set [4] (t = 0 d, 10 mg in 0.6 mL D2O) is 4.24; in data set [4] (t = 4 d, D2O), 4.02; in data set [4] (t = 5 d, D2O), 4.02; in data set [4] (t = 14 d, D2O) it was 3.46; in data set [4] (t = 29 d, D2O), 2.98; in data set [4] (t = 56 d, D2O), 1.98. For the same molecule, in data set [4] (t = 84 d, D2O), the “integral rel. to TPP” value is listed as 1.31. The “integral rel. to t = 0” value in data set [4] (t = 0 d, D2O) is on record as 1; in data set [4] (t = 4 d, D2O), 0.9481; in data set [4] (t = 5 d, D2O) it was 0.9481; in data set [4] (t = 14 d, D2O), 0.816; in data set [4] (t = 29 d, D2O) it was 0.7028; in data set [4] (t = 56 d, D2O), 0.467. The “integral rel. to t = 0” value in data set [4] (t = 84 d, D2O) is 0.309. Also, in data set [1], the solubility in water was 17.2 mg/mL. Moreover, the photobleaching entry in data set [2] (0.25 mM in THF, 15 min irradiation with 265 nm) was “only colourless photoproducts are formed”. Further, the “red shift of λmax compared to ^MesBAPO-ONBu4” value in data set [2] (THF) is given as “about 20 nm”. For the same molecule, in data set [2] (THF), the “λmax (longest wave absorption)” value is 394 nm. Besides, the ε in data set [2] (λ = 235 nm) was 16957±1372 Lmol^-1cm^-1; in data set [2] (λ = 265 nm (LED wavelength)), 3424±88 Lmol^-1cm^-1; in data set [2] (λ = 365 nm (LED wavelength)) it was 106±2 Lmol^-1cm^-1; in data set [2] (λ = 394 nm) it was 171±4 Lmol^-1cm^-1. This molecule also showed a ε405 in data set [2] of 154 Lmol^-1cm^-1. Further, the “irradiation time to complete photolysis” value in data set [3] is given as not above 6 min. Also, the “photoactivity relative to ^MesBAPO-ONBu4” value in data set [3] (405 nm irradiation) is “at least twice as photoactive as ^MesBAPO-ONBu4”.

Values taken from patent EP3539969A1, “NOVEL PHOTO-INITIATORS AND THEIR APPLICATION” (ETH Zurich, priority 2018, dated 2019).
